How the values were obtained:
Mus musculus [1] = species: Mus musculus; test: Skin irritant activity in NMRI mouse ear assessed as irritancy after 24 hrs; type: ADME, organism-based; settings: in vivo
Mus musculus [2] = species: Mus musculus; test: Skin irritant activity in NMRI mouse ear assessed as irritant dose 50 per ear after 24 hrs; type: ADME, organism-based; settings: in vivo
Mus musculus [3] = species: Mus musculus; test: Tumor promoting activity of DMBA-initiated tumor in back skin of NMRI mouse assessed as average tumor yeild at 20 nmol twice weekly measured after 24 weeks; type: organism-based, Zone of skin; settings: in vivo, 4032 h
Mus musculus [4] = species: Mus musculus; test: Tumor promoting activity of DMBA-initiated tumor in back skin of NMRI mouse assessed as average tumor yeild at 20 nmol twice weekly measured after 12 weeks; type: organism-based, Zone of skin; settings: in vivo, 2016 h
Mus musculus [5] = species: Mus musculus; test: Tumor promoting activity of DMBA-initiated tumor in back skin of NMRI mouse assessed as tumor rate at 20 nmol twice weekly measured after 24 weeks; type: organism-based, Zone of skin; settings: in vivo, 4032 h
[6] = Tumor promoting activity of DMBA-initiated tumor in back skin of NMRI mouse assessed as survival rate at 20 nmol twice weekly measured after 24 weeks; type: organism-based, Zone of skin; settings: in vivo, topical or ocular
Mus musculus [7] = species: Mus musculus; test: Tumor promoting activity of DMBA-initiated tumor in back skin of NMRI mouse assessed as tumor rate at 20 nmol twice weekly measured after 12 weeks; type: organism-based, Zone of skin; settings: in vivo, 2016 h
Mus musculus [8] = species: Mus musculus; test: Tumor promoting activity of DMBA-initiated tumor in back skin of NMRI mouse assessed as average tumor yeild at 5 nmol twice weekly measured after 24 weeks; type: organism-based, Zone of skin; settings: in vivo, 4032 h
Mus musculus [9] = species: Mus musculus; test: Tumor promoting activity of DMBA-initiated tumor in back skin of NMRI mouse assessed as average tumor yeild at 2.5 nmol twice weekly measured after 24 weeks; type: ADME, organism-based, Zone of skin; settings: in vivo, 4032 h
Mus musculus [10] = species: Mus musculus; test: Tumor promoting activity of DMBA-initiated tumor in back skin of NMRI mouse assessed as tumor rate at 5 nmol twice weekly measured after 12 weeks; type: organism-based, Zone of skin; settings: in vivo, 2016 h
[11] = Tumor promoting activity of DMBA-initiated tumor in back skin of NMRI mouse assessed as survival rate at 5 nmol twice weekly measured after 24 weeks; type: organism-based, Zone of skin; settings: in vivo, topical or ocular
Mus musculus [12] = species: Mus musculus; test: Tumor promoting activity of DMBA-initiated tumor in back skin of NMRI mouse assessed as average tumor yeild at 5 nmol twice weekly measured after 12 weeks; type: organism-based, Zone of skin; settings: in vivo, 2016 h
Mus musculus [13] = species: Mus musculus; test: Tumor promoting activity of DMBA-initiated tumor in back skin of NMRI mouse assessed as tumor rate at 2.5 nmol twice weekly measured after 12 weeks; type: organism-based, Zone of skin; settings: in vivo, 2016 h
[14] = Tumor promoting activity of DMBA-initiated tumor in back skin of NMRI mouse assessed as survival rate at 2.5 nmol twice weekly measured after 24 weeks; type: organism-based, Zone of skin; settings: in vivo, topical or ocular
Mus musculus [15] = species: Mus musculus; test: Tumor promoting activity of DMBA-initiated tumor in back skin of NMRI mouse assessed as tumor rate at 2.5 nmol twice weekly measured after 24 weeks; type: organism-based, Zone of skin; settings: in vivo, 4032 h
Mus musculus [16] = species: Mus musculus; test: Tumor promoting activity of DMBA-initiated tumor in back skin of NMRI mouse assessed as average tumor yeild at 2.5 nmol twice weekly measured after 12 weeks; type: ADME, organism-based, Zone of skin; settings: in vivo, 2016 h
Mus musculus [17] = species: Mus musculus; test: Tumor promoting activity of DMBA-initiated tumor in back skin of NMRI mouse assessed as tumor rate at 5 nmol twice weekly measured after 24 weeks; type: organism-based, Zone of skin; settings: in vivo, 4032 h
Mus musculus [18] = species: Mus musculus; test: Tumor promoting activity of DMBA-initiated tumor in back skin of NMRI mouse assessed as average tumor yeild at 10 nmol twice weekly measured after 12 weeks; type: organism-based, Zone of skin; settings: in vivo, 2016 h
[19] = Tumor promoting activity of DMBA-initiated tumor in back skin of NMRI mouse assessed as survival rate at 10 nmol twice weekly measured after 24 weeks; type: organism-based, Zone of skin; settings: in vivo, topical or ocular
Mus musculus [20] = species: Mus musculus; test: Tumor promoting activity of DMBA-initiated tumor in back skin of NMRI mouse assessed as tumor rate at 10 nmol twice weekly measured after 24 weeks; type: organism-based, Zone of skin; settings: in vivo, 4032 h
Mus musculus [21] = species: Mus musculus; test: Tumor promoting activity of DMBA-initiated tumor in back skin of NMRI mouse assessed as average tumor yeild at 10 nmol twice weekly measured after 24 weeks; type: organism-based, Zone of skin; settings: in vivo, 4032 h
Mus musculus [22] = species: Mus musculus; test: Tumor promoting activity of DMBA-initiated tumor in back skin of NMRI mouse assessed as tumor rate at 10 nmol twice weekly measured after 12 weeks; type: organism-based, Zone of skin; settings: in vivo, 2016 h

C=C(C)[C@]12C[C@@H](C)[C@@]34O[C@](/C=C\C=C\CCCCCCCCCC)(O[C@@H]1[C@@H]3[C@@H]1O[C@]1(CO)[C@@H](O)[C@]1(O)C(=O)C(C)=C[C@H]14)O2
Activity (Mus musculus [1]): 50 nmol⁻¹ | Activity (Mus musculus [2]): 0.02 nmol

C=C(C)[C@]12O[C@@]3(/C=C/C=C/C=C\CCC)O[C@@H]1[C@@H]1[C@@H]4O[C@]4(CO)[C@@H](O)[C@]4(O)C(=O)C(C)=C[C@H]4[C@@]1(O3)[C@H](C)[C@H]2OC(C)=O
Activity (Mus musculus [3]): 0 | Activity (Mus musculus [4]): 0 | Activity (Mus musculus [5]): 0% | survival at 4032 h [6]: 100% | Activity (Mus musculus [7]): 0% | Activity (Mus musculus [1]): 0.91 nmol⁻¹ | Activity (Mus musculus [2]): 1.1 nmol

C=C(C)[C@@]1(O)C[C@@H](C)[C@@]2(O)[C@H]([C@H]1OC(=O)/C=C/CCCCCCCCCCCCC)[C@@H]1O[C@]1(COC(=O)CCCCCCCCCCCCCCC)[C@@H](O)[C@]1(O)C(=O)C(C)=C[C@H]12
Activity (Mus musculus [1]): 0.15 nmol⁻¹ | Activity (Mus musculus [2]): 20 nmol

C=C(C)[C@@]1(OC(=O)/C=C/CCCCCCCCCCCCC)C[C@@H](C)[C@@]2(O)[C@H]([C@H]1O)[C@@H]1O[C@]1(CO)[C@@H](O)[C@]1(O)C(=O)C(C)=C[C@H]12
Activity (Mus musculus [1]): 13 nmol⁻¹ | Activity (Mus musculus [2]): 0.08 nmol

C=C(C)[C@]12C[C@@H](C)[C@@]34O[C@](/C=C\C=C\CCCCC)(O[C@@H]1[C@@H]3[C@@H]1O[C@]1(CO)[C@@H](O)[C@]1(O)C(=O)C(C)=C[C@H]14)O2
Activity (Mus musculus [1]): 6.7 nmol⁻¹ | Activity (Mus musculus [2]): 0.15 nmol

C=C(C)[C@]12O[C@@]34/C=C/CCCCCCCCCCC[C@H](C)[C@H]5[C@H](C)C(=O)[C@@]6(O)[C@H](O)[C@@]7(CO)O[C@H]7[C@@H]([C@H]1O3)[C@](O4)([C@H](C)[C@H]2OC(C)=O)[C@H]56
Activity (Mus musculus [8]): 4.4 | Activity (Mus musculus [9]): 0.6 | Activity (Mus musculus [10]): 33% | survival at 4032 h [11]: 99% | Activity (Mus musculus [12]): 0.33 | Activity (Mus musculus [13]): 0% | Activity (Mus musculus [1]): 100 nmol⁻¹ | survival at 4032 h [14]: 94% | Activity (Mus musculus [15]): 27% | Activity (Mus musculus [16]): 0 | Activity (Mus musculus [2]): 0.01 nmol | Activity (Mus musculus [17]): 100%

C=C(C)[C@@]1(O)C[C@@H](C)[C@@]2(O)[C@H]([C@H]1OC(=O)/C=C/CCCCCCCCCCCCC)[C@@H]1O[C@]1(CO)[C@@H](O)[C@]1(O)C(=O)C(C)=C[C@H]12
Activity (Mus musculus [1]): 29 nmol⁻¹ | Activity (Mus musculus [2]): 0.035 nmol

C=C(C)[C@]12C[C@@H](C)[C@@]34O[C@](/C=C/CCCCCCCCCCCCC)(O[C@@H]1[C@@H]3[C@@H]1O[C@]1(COC(=O)CCCCCCCCCCCCCCC)[C@@H](O)[C@]1(O)C(=O)C(C)=C[C@H]14)O2
Activity (Mus musculus [1]): 6.3 nmol⁻¹ | Activity (Mus musculus [2]): 0.16 nmol

C=C(C)[C@]12O[C@@]3(/C=C/C=C/CCCCCCCCC)O[C@@H]1[C@@H]1[C@@H]4O[C@]4(CO)[C@@H](O)[C@]4(O)C(=O)C(C)=C[C@H]4[C@@]1(O3)[C@H](C)[C@H]2OC(C)=O
Activity (Mus musculus [1]): 33 nmol⁻¹ | Activity (Mus musculus [2]): 0.03 nmol

C=C(C)[C@]12C[C@@H](C)[C@@]34O[C@](/C=C/CCCCCCCCCCCCC)(O[C@@H]1[C@@H]3[C@@H]1O[C@]1(CO)[C@@H](O)[C@]1(O)C(=O)C(C)=C[C@H]14)O2
Activity (Mus musculus [8]): 2.9 | Activity (Mus musculus [10]): 6% | survival at 4032 h [11]: 100% | Activity (Mus musculus [12]): 0.13 | Activity (Mus musculus [18]): 4.7 | Activity (Mus musculus [1]): 50 nmol⁻¹ | survival at 4032 h [19]: 94% | Activity (Mus musculus [20]): 100% | Activity (Mus musculus [21]): 9.7 | Activity (Mus musculus [22]): 94% | Activity (Mus musculus [2]): 0.02 nmol | Activity (Mus musculus [17]): 69%

C=C(C)[C@]12C[C@@H](C)[C@@]34O[C@](CCCCCCCCCCCCCCC)(O[C@@H]1[C@@H]3[C@@H]1O[C@]1(CO)[C@@H](O)[C@]1(O)C(=O)C(C)=C[C@H]14)O2
Activity (Mus musculus [1]): 25 nmol⁻¹ | Activity (Mus musculus [2]): 0.04 nmol

C=C(C)[C@]12O[C@@]3(/C=C/C=C/CCCCC)O[C@@H]1[C@@H]1[C@@H]4O[C@]4(CO)[C@@H](O)[C@]4(O)C(=O)C(C)=C[C@H]4[C@@]1(O3)[C@H](C)[C@H]2O
Activity (Mus musculus [1]): 1.1 nmol⁻¹ | Activity (Mus musculus [2]): 0.92 nmol

C=C(C)[C@@]12C[C@@H](C)[C@@]34O[C@@]5(/C=C/CCCCCCCCCCCC(C)[C@H]6[C@H](C)C(=O)[C@@](O)([C@H](O)[C@@]7(COC(=O)CCCCCCCCCCCCCCC)O[C@H]7[C@H]3[C@H]1O5)[C@@H]64)O2 (stereo partly specified)
Activity (Mus musculus [1]): 53 nmol⁻¹ | Activity (Mus musculus [2]): 0.019 nmol

C=C(C)[C@]12O[C@@]3(/C=C/C=C/CCCCC)O[C@@H]1[C@@H]1[C@@H]4O[C@]4(CO)[C@@H](O)[C@]4(O)C(=O)C(C)=C[C@H]4[C@@]1(O3)[C@H](C)[C@H]2OC(C)=O
Activity (Mus musculus [3]): 0.36 | Activity (Mus musculus [4]): 0 | Activity (Mus musculus [5]): 14% | survival at 4032 h [6]: 88% | Activity (Mus musculus [7]): 0% | Activity (Mus musculus [1]): 3.7 nmol⁻¹ | Activity (Mus musculus [2]): 0.27 nmol

C=C(C)[C@]12O[C@@]3(/C=C/C=C/C=C\CCC)O[C@@H]1[C@@H]1[C@@H]4O[C@]4(CO)[C@@H](O)[C@]4(O)C(=O)C(C)=C[C@H]4[C@@]1(O3)[C@H](C)[C@H]2O
Activity (Mus musculus [1]): 1.2 nmol⁻¹ | Activity (Mus musculus [2]): 0.81 nmol

C=C(C)[C@]12O[C@@]34/C=C/CCCCCCCCCCCC(C)[C@H]5[C@H](C)C(=O)[C@@]6(O)[C@H](O)[C@@]7(CO)O[C@H]7[C@@H]([C@H]1O3)[C@](O4)([C@H](C)[C@H]2O)[C@H]56 (stereo partly specified)
Activity (Mus musculus [8]): 2.7 | Activity (Mus musculus [9]): 2.9 | Activity (Mus musculus [10]): 60% | survival at 4032 h [11]: 94% | Activity (Mus musculus [12]): 1.3 | Activity (Mus musculus [13]): 6.7% | Activity (Mus musculus [1]): 667 nmol⁻¹ | survival at 4032 h [14]: 100% | Activity (Mus musculus [15]): 87% | Activity (Mus musculus [16]): 0.33 | Activity (Mus musculus [2]): 0.0015 nmol | Activity (Mus musculus [17]): 86%

C=C(C)[C@@]12C[C@@H](C)[C@@]34O[C@@]5(/C=C/CCCCCCCCCCCC(C)(O)[C@H]6[C@H](C)C(=O)[C@@](O)([C@H](O)[C@@]7(CO)O[C@H]7[C@H]3[C@H]1O5)[C@@H]64)O2 (stereo partly specified)
Activity (Mus musculus [1]): 6 nmol⁻¹ | Activity (Mus musculus [2]): 0.016 nmol

C=C(C)[C@]12C[C@@H](C)[C@@]34O[C@](CCCCCCCCC)(O[C@@H]1[C@@H]3[C@@H]1O[C@]1(CO)[C@@H](O)[C@]1(O)C(=O)C(C)=C[C@H]14)O2 [SIMPLEXIN]
Activity (Mus musculus [3]): 3 | Activity (Mus musculus [4]): 0.6 | Activity (Mus musculus [5]): 71% | survival at 4032 h [6]: 100% | Activity (Mus musculus [7]): 20% | Activity (Mus musculus [18]): 0.2 | Activity (Mus musculus [1]): 77 nmol⁻¹ | survival at 4032 h [19]: 93% | Activity (Mus musculus [20]): 54% | Activity (Mus musculus [21]): 1.7 | Activity (Mus musculus [22]): 4% | Activity (Mus musculus [2]): 0.013 nmol
